Data as given in the NIST ThermoML archive (doi:10.1007/s10765-010-0773-1).
± gives the expanded uncertainty stated by the source.

Test: xn = mol fraction of the nth substance listed
Details: 101 kPa, Liquid; for mass density: Vibrating tube method; for speed of sound: Pulse-echo method

Question: Which results are given for `BrCBr` [dibromomethane] + CCCCCCC?
Answer: mass density (288.15 K, x1 = 0.1019): 779.65 ± 0.27 kg/m3; mass density (288.15 K, x1 = 0.1838): 861.49 ± 0.31 kg/m3; mass density (288.15 K, x1 = 0.2536): 937.65 ± 0.37 kg/m3; mass density (288.15 K, x1 = 0.3055): 998.83 ± 0.46 kg/m3; mass density (288.15 K, x1 = 0.4064): 1130.32 ± 0.67 kg/m3; mass density (288.15 K, x1 = 0.5029): 1274.13 ± 0.93 kg/m3; mass density (288.15 K, x1 = 0.6023): 1444.97 ± 0.95 kg/m3; mass density (288.15 K, x1 = 0.6525): 1541.56 ± 1 kg/m3; mass density (288.15 K, x1 = 0.7016): 1644.24 ± 1.1 kg/m3; mass density (288.15 K, x1 = 0.8003): 1878.69 ± 1.2 kg/m3; mass density (288.15 K, x1 = 0.8961): 2149.52 ± 1.5 kg/m3; mass density (288.15 K, x1 = 1): 2509.06 ± 1.9 kg/m3; speed of sound (292.87 K, x1 = 1): 960.63 ± 1.5 m/s; speed of sound (292.88 K, x1 = 0.9019): 946.13 ± 1.5 m/s; speed of sound (292.89 K, x1 = 0.1062): 1104 ± 1.6 m/s; speed of sound (292.89 K, x1 = 0.2032): 1066.3 ± 1.6 m/s; speed of sound (292.89 K, x1 = 0.304): 1032.1 ± 1.6 m/s; speed of sound (292.9 K, x1 = 0.405): 1002.4 ± 1.6 m/s; speed of sound (292.9 K, x1 = 0.4998): 979.49 ± 1.5 m/s; speed of sound (292.91 K, x1 = 0.7043): 946.92 ± 1.5 m/s; speed of sound (292.91 K, x1 = 0.8031): 941.84 ± 1.5 m/s; speed of sound (292.92 K, x1 = 0.6048): 959.47 ± 1.5 m/s; mass density (293.14 K, x1 = 0.2536): 932.03 ± 0.37 kg/m3; mass density (293.14 K, x1 = 0.4064): 1123.66 ± 0.65 kg/m3; mass density (293.14 K, x1 = 0.6023): 1436.76 ± 0.93 kg/m3; mass density (293.14 K, x1 = 0.7016): 1635.05 ± 1.1 kg/m3; mass density (293.15 K, x1 = 0.1019): 774.91 ± 0.26 kg/m3; mass density (293.15 K, x1 = 0.1838): 856.29 ± 0.31 kg/m3; mass density (293.15 K, x1 = 0.3055): 992.87 ± 0.45 kg/m3; mass density (293.15 K, x1 = 0.5029): 1266.74 ± 0.92 kg/m3; mass density (293.15 K, x1 = 0.6525): 1532.85 ± 0.99 kg/m3; mass density (293.15 K, x1 = 0.8003): 1868.4 ± 1.2 kg/m3; mass density (293.15 K, x1 = 0.8961): 2138.01 ± 1.4 kg/m3; mass density (293.15 K, x1 = 1): 2496.03 ± 1.9 kg/m3; mass density (298.14 K, x1 = 0.1838): 851.06 ± 0.3 kg/m3; mass density (298.14 K, x1 = 0.2536): 926.36 ± 0.37 kg/m3; mass density (298.14 K, x1 = 0.3055): 986.88 ± 0.45 kg/m3; mass density (298.14 K, x1 = 0.6023): 1428.45 ± 0.92 kg/m3; mass density (298.14 K, x1 = 0.7016): 1625.79 ± 1.1 kg/m3; mass density (298.14 K, x1 = 0.8961): 2126.46 ± 1.4 kg/m3; speed of sound (298.15 K, x1 = 0.2032): 1045.8 ± 1.6 m/s; speed of sound (298.15 K, x1 = 0.9019): 931.96 ± 1.5 m/s; speed of sound (298.15 K, x1 = 1): 947.15 ± 1.5 m/s; mass density (298.15 K, x1 = 0.1019): 770.15 ± 0.26 kg/m3; mass density (298.15 K, x1 = 0.4064): 1116.96 ± 0.65 kg/m3; mass density (298.15 K, x1 = 0.5029): 1259.28 ± 0.91 kg/m3; mass density (298.15 K, x1 = 0.6525): 1524.09 ± 0.98 kg/m3; mass density (298.15 K, x1 = 0.8003): 1858.05 ± 1.2 kg/m3; mass density (298.15 K, x1 = 1): 2482.97 ± 1.8 kg/m3; speed of sound (298.16 K, x1 = 0.1062): 1082.4 ± 1.6 m/s; speed of sound (298.16 K, x1 = 0.304): 1012.7 ± 1.6 m/s; speed of sound (298.17 K, x1 = 0.4998): 962 ± 1.5 m/s; speed of sound (298.17 K, x1 = 0.8031): 926.99 ± 1.5 m/s; speed of sound (298.18 K, x1 = 0.405): 984.03 ± 1.5 m/s; speed of sound (298.18 K, x1 = 0.7043): 931.29 ± 1.5 m/s; speed of sound (298.19 K, x1 = 0.6048): 942.98 ± 1.5 m/s; speed of sound (303.11 K, x1 = 1): 934.52 ± 1.5 m/s; speed of sound (303.13 K, x1 = 0.1062): 1062.1 ± 1.6 m/s; speed of sound (303.13 K, x1 = 0.2032): 1026.6 ± 1.6 m/s; speed of sound (303.13 K, x1 = 0.304): 994.46 ± 1.5 m/s; speed of sound (303.13 K, x1 = 0.9019): 918.63 ± 1.5 m/s; speed of sound (303.14 K, x1 = 0.8031): 913 ± 1.5 m/s; mass density (303.14 K, x1 = 0.6023): 1420.11 ± 0.92 kg/m3; speed of sound (303.15 K, x1 = 0.405): 966.75 ± 1.5 m/s; speed of sound (303.15 K, x1 = 0.4998): 945.56 ± 1.5 m/s; speed of sound (303.15 K, x1 = 0.7043): 916.56 ± 1.5 m/s; mass density (303.15 K, x1 = 0.1019): 765.35 ± 0.26 kg/m3; mass density (303.15 K, x1 = 0.1838): 845.79 ± 0.3 kg/m3; mass density (303.15 K, x1 = 0.2536): 920.67 ± 0.37 kg/m3; mass density (303.15 K, x1 = 0.3055): 980.85 ± 0.45 kg/m3; mass density (303.15 K, x1 = 0.4064): 1110.22 ± 0.64 kg/m3; mass density (303.15 K, x1 = 0.5029): 1251.79 ± 0.9 kg/m3; mass density (303.15 K, x1 = 0.6525): 1515.27 ± 0.97 kg/m3; mass density (303.15 K, x1 = 0.7016): 1616.48 ± 1 kg/m3; mass density (303.15 K, x1 = 0.8003): 1847.66 ± 1.2 kg/m3; mass density (303.15 K, x1 = 0.8961): 2114.87 ± 1.4 kg/m3; mass density (303.15 K, x1 = 1): 2469.88 ± 1.8 kg/m3; speed of sound (303.17 K, x1 = 0.6048): 927.45 ± 1.5 m/s; speed of sound (308.1 K, x1 = 0.2032): 1007.5 ± 1.6 m/s; speed of sound (308.1 K, x1 = 1): 921.89 ± 1.5 m/s; speed of sound (308.11 K, x1 = 0.9019): 905.33 ± 1.5 m/s; speed of sound (308.12 K, x1 = 0.1062): 1041.9 ± 1.6 m/s; speed of sound (308.12 K, x1 = 0.304): 976.3 ± 1.5 m/s; speed of sound (308.12 K, x1 = 0.4998): 929.18 ± 1.5 m/s; speed of sound (308.13 K, x1 = 0.405): 949.39 ± 1.5 m/s; speed of sound (308.13 K, x1 = 0.8031): 899.01 ± 1.5 m/s; speed of sound (308.14 K, x1 = 0.6048): 911.94 ± 1.5 m/s; speed of sound (308.14 K, x1 = 0.7043): 901.84 ± 1.5 m/s; mass density (308.15 K, x1 = 0.1019): 760.52 ± 0.26 kg/m3; mass density (308.15 K, x1 = 0.1838): 840.49 ± 0.3 kg/m3; mass density (308.15 K, x1 = 0.2536): 914.94 ± 0.37 kg/m3; mass density (308.15 K, x1 = 0.3055): 974.78 ± 0.45 kg/m3; mass density (308.15 K, x1 = 0.4064): 1103.44 ± 0.64 kg/m3; mass density (308.15 K, x1 = 0.5029): 1244.25 ± 0.9 kg/m3; mass density (308.15 K, x1 = 0.6023): 1411.72 ± 0.91 kg/m3; mass density (308.15 K, x1 = 0.6525): 1506.41 ± 0.97 kg/m3; mass density (308.15 K, x1 = 0.7016): 1607.12 ± 1 kg/m3; mass density (308.15 K, x1 = 0.8003): 1837.22 ± 1.1 kg/m3; mass density (308.15 K, x1 = 0.8961): 2103.24 ± 1.4 kg/m3; mass density (308.15 K, x1 = 1): 2456.76 ± 1.8 kg/m3; mass density (313.14 K, x1 = 0.1019): 755.67 ± 0.26 kg/m3; mass density (313.14 K, x1 = 0.5029): 1236.67 ± 0.89 kg/m3; mass density (313.14 K, x1 = 0.6525): 1497.49 ± 0.96 kg/m3; mass density (313.15 K, x1 = 0.1838): 835.16 ± 0.3 kg/m3; mass density (313.15 K, x1 = 0.2536): 909.16 ± 0.37 kg/m3; mass density (313.15 K, x1 = 0.3055): 968.68 ± 0.45 kg/m3; mass density (313.15 K, x1 = 0.4064): 1096.62 ± 0.63 kg/m3; mass density (313.15 K, x1 = 0.6023): 1403.28 ± 0.9 kg/m3; mass density (313.15 K, x1 = 0.7016): 1597.72 ± 1 kg/m3; mass density (313.15 K, x1 = 0.8003): 1826.75 ± 1.1 kg/m3; mass density (313.15 K, x1 = 0.8961): 2091.58 ± 1.4 kg/m3; mass density (313.15 K, x1 = 1): 2443.59 ± 1.8 kg/m3; speed of sound (313.27 K, x1 = 1): 908.83 ± 1.5 m/s; speed of sound (313.28 K, x1 = 0.2032): 987.55 ± 1.5 m/s; speed of sound (313.28 K, x1 = 0.9019): 891.54 ± 1.5 m/s; speed of sound (313.29 K, x1 = 0.1062): 1021 ± 1.5 m/s; speed of sound (313.3 K, x1 = 0.304): 957.58 ± 1.5 m/s; speed of sound (313.31 K, x1 = 0.405): 931.52 ± 1.5 m/s; speed of sound (313.31 K, x1 = 0.4998): 912.23 ± 1.5 m/s; speed of sound (313.31 K, x1 = 0.7043): 886.55 ± 1.5 m/s; speed of sound (313.31 K, x1 = 0.8031): 884.49 ± 1.5 m/s; speed of sound (313.32 K, x1 = 0.6048): 895.85 ± 1.5 m/s; mass density (318.15 K, x1 = 0.1019): 750.77 ± 0.26 kg/m3; mass density (318.15 K, x1 = 0.1838): 829.78 ± 0.3 kg/m3; mass density (318.15 K, x1 = 0.2536): 903.35 ± 0.36 kg/m3; mass density (318.15 K, x1 = 0.3055): 962.53 ± 0.44 kg/m3; mass density (318.15 K, x1 = 0.4064): 1089.75 ± 0.63 kg/m3; mass density (318.15 K, x1 = 0.5029): 1229.04 ± 0.88 kg/m3; mass density (318.15 K, x1 = 0.6023): 1394.79 ± 0.89 kg/m3; mass density (318.15 K, x1 = 0.6525): 1488.53 ± 0.95 kg/m3; mass density (318.15 K, x1 = 0.7016): 1588.27 ± 1 kg/m3; mass density (318.15 K, x1 = 0.8003): 1816.27 ± 1.1 kg/m3; mass density (318.15 K, x1 = 0.8961): 2079.95 ± 1.4 kg/m3; mass density (318.15 K, x1 = 1): 2430.37 ± 1.8 kg/m3
